Measurements: patent US20200346048A1, “METHOD AND KIT FOR HOME CONTROLLED OVARIAN STIMULATION FOR IN VITRO FERTILIZATION” (priority 2019, published 2020)
Where “and” joins values, the source holds several entries; their conditions need not be identical. Equal values may be shown once. Square brackets hold non-standard residues; d marks the D form. Peptide text beside a SMILES is read from it. d(hArg(Et2)) = CCN=C(NCC)NCCCC[C@@H](N)C(=O)O; hArg(Et2) = CCN=C(NCC)NCCCC[C@H](N)C(=O)O; dPhe(4-Cl) = N[C@H](Cc1ccc(Cl)cc1)C(=O)O; d2Nal = N[C@H](Cc1ccc2ccccc2c1)C(=O)O; d3Pal = N[C@H](Cc1cccnc1)C(=O)O

What was measured:
[1] = system: Luteinizing hormone (LH) blood level; assay: GnRH antagonist protocol with ganirelix acetate injections (Example 1): LH blood level before and after medication; format: in vivo, female patients
Method: Five female patients were treated with a GnRH antagonist protocol requiring injections of medications. […]
Three patients, numbered 3 to 5, were injected with 75, 150 and 225 Units of FSH, respectively, on days 4 to 12 and one third a syringe of 150 mcg/0.5 mL of ganirelix acetate on days 11 to 13. Patient no. 3 received 50 mg of clomiphene citrate on days 4 to 12, and 2.5 mg of letrozole on days 4 to 8. Patient no. 4 received 100 mg of clomiphene citrate and 2.5 mg of letrozole on days 4 to 8, and 50 mg of clomiphene citrate on days 9 to 11. Patient no. 5 received no clomiphene citrate or letrozole. Luteinizing hormone (LH) blood level was 12.0, 18.0 and 14.6 mIU/mL, respectively, on day 10 and dropped to 4.9, 16.0 and 14.1 mIU/mL, respectively, on day 12. […]

[2] = system: Luteinizing hormone (LH) blood level; assay: Home controlled ovarian hyperstimulation method with vaginal elagolix (Example 2): LH blood level before and after medication; format: in vivo, female patients; details: 50 mg elagolix tablet as vaginal suppository on days 9 and 11
Method: On day 9 of the menstrual cycle, the patient is directed to orally take 50 to 150 mg, preferably 100 mg, (one, two, or three 50 mg oral tablets) of clomiphene citrate and to either insert vaginally or take orally, depending on the patient's preference, a gonadotropin-releasing hormone (GnRH) antagonist such as elagolix (marketed as ORILISSA®), instead of the expensive injections of ganirelix acetate (GANIRELEX®) or cetrorelix acetate (marketed as CETROTIDE®) used routinely in conventional practices. A dose of 25 mg (⅛^th of a pill) up to 200 mg of elagolix (1 full pill), preferably 25 mg, will be used, with the dose being the same whether inserted vaginally or taken orally. Elagolix is a GnRH antagonist that is conventionally used in the treatment of pain associated with endometriosis in women, not for the treatment of infertility. By blocking the GnRH receptor, elagolix suppresses LH release by the pituitary gland and thus prevents LH surge. Ultimately, elagolix suppresses gonadal steroid production, thereby reducing circulating levels of sex hormones such as progesterone, estradiol, and testosterone. Elagolix is generally an oral medication (oral tablet), however in the present method, elagolix is a tablet taken mainly as a vaginal suppository, but may be taken orally based on the patient's preference. […]

| SMILES | LH blood hormone level (mIU/mL) AFTER medication intake ([1]; Example 1, one line per patient (patients 1-5), after ganirelix injections, listed as Conventional Ganielex/Cetrotide Injectables) | LH blood hormone level (mIU/mL) BEFORE medication intake ([1]; Example 1, one line per patient (patients 1-5), baseline before ganirelix injections, with FSH and, except patient 5, clomiphene citrate/letrozole, listed as Conventional Ganielex/Cetrotide Injectables) | % Drop in blood LH hormone level ([1]; Example 1, one line per patient (patients 1-5), before vs after medication intake, listed as Conventional Ganielex/Cetrotide Injectables) [%] | Luteinizing hormone (LH) blood level on day 12 ([1]; patient no. 1, half a syringe of 150 mcg/0.5 mL ganirelix acetate on days 11 and 12) [mIU/mL] | Luteinizing hormone (LH) blood level on day 10 ([1]; patient no. 1, half a syringe of 150 mcg/0.5 mL ganirelix acetate on days 11 and 12, FSH 150 Units, clomiphene citrate 50 mg, letrozole 2.5 mg) [mIU/mL] | Luteinizing hormone (LH) blood level on day 13 ([1]; patient no. 2, half a syringe of 150 mcg/0.5 mL ganirelix acetate on days 11 to 13) [mIU/mL] | Luteinizing hormone (LH) blood level on day 11 ([1]; patient no. 2, half a syringe of 150 mcg/0.5 mL ganirelix acetate on days 11 to 13, FSH 75/150 Units, clomiphene citrate 50 mg, letrozole 2.5 mg) [mIU/mL] | Luteinizing hormone (LH) blood level on day 10 ([1]; patients no. 3, 4, 5 respectively, one third a syringe of 150 mcg/0.5 mL ganirelix acetate on days 11 to 13, FSH 75, 150, 225 Units) | Luteinizing hormone (LH) blood level on day 13 [2] [mIU/mL] | Luteinizing hormone (LH) blood level on day 11 ([2]; clomiphene citrate 100 mg, letrozole 5 mg) [mIU/mL] |
| --- | --- | --- | --- | --- | --- | --- | --- | --- | --- | --- |
| CCN=C(NCC)NCCCC[C@H](NC(=O)[C@H](CC(C)C)NC(=O)[C@@H](CCCCNC(=NCC)NCC)NC(=O)[C@H](Cc1ccc(O)cc1)NC(=O)[C@H](CO)NC(=O)[C@@H](Cc1cccnc1)NC(=O)[C@@H](Cc1ccc(Cl)cc1)NC(=O)[C@@H](Cc1ccc2ccccc2c1)NC(C)=O)C(=O)N1CCC[C@H]1C(=O)N[C@H](C)C(N)=O [Ganirelex, ganirelix acetate] (Ac-[d2Nal][dPhe(4-Cl)][d3Pal]SY[d(hArg(Et2))]L[hArg(Et2)]P[dA]-NH2) | 2.0 mIU/mL and 6.3 mIU/mL and 4.9 mIU/mL and 16.0 mIU/mL and 14.1 mIU/mL | 4.3 mIU/mL and 12.0 mIU/mL (2×) and 18.0 mIU/mL and 14.6 mIU/mL | 3.4 | 2 | 4.3 | 6.3 | 12.0 | 12.0 mIU/mL and 18.0 mIU/mL and 14.6 mIU/mL |  |  |
| COc1cccc(-c2c(C)n(Cc3c(F)cccc3C(F)(F)F)c(=O)n(C[C@H](NCCCC(=O)O)c3ccccc3)c2=O)c1F [Vaginal elagolix suppository, elagolix] |  |  |  |  |  |  |  |  | 1.0 | 7.0 |
